The source of these data is ChEMBL document CHEMBL4028801, “A multifactorial approach to hepatobiliary transporter assessment enables improved therapeutic compound development” (Toxicol Sci, 2013).

pIC50: −log10 of the molar value. Non-standard residues stand in square brackets, D forms with d. Residues, ends and D or L forms follow the SMILES beside them. dPhe(4-Cl) = N[C@H](Cc1ccc(Cl)cc1)C(=O)O; d2Nal = N[C@H](Cc1ccc2ccccc2c1)C(=O)O; dCit = NC(=O)NCCC[C@@H](N)C(=O)O; d3Pal = N[C@H](Cc1cccnc1)C(=O)O Some results are limits rather than exact numbers.

For series [1], the target named is ATP-binding cassette sub-family C member 3 (Homo sapiens, UniProt O15438). Nature of the series: Inhibition of human MRP3 overexpressed in Sf9 insect cell membrane vesicles assessed as uptake of [3H]-estradiol-17beta-D-glucuronide in presence of ATP and GSH measured after 10 mins by membrane vesicle transport assay. The class given is ADME, cell-based.
Series [2] addresses T1, ATP-binding cassette sub-family C member 4 (Homo sapiens, UniProt O15439).
T1 sequence (O15439 whole entry): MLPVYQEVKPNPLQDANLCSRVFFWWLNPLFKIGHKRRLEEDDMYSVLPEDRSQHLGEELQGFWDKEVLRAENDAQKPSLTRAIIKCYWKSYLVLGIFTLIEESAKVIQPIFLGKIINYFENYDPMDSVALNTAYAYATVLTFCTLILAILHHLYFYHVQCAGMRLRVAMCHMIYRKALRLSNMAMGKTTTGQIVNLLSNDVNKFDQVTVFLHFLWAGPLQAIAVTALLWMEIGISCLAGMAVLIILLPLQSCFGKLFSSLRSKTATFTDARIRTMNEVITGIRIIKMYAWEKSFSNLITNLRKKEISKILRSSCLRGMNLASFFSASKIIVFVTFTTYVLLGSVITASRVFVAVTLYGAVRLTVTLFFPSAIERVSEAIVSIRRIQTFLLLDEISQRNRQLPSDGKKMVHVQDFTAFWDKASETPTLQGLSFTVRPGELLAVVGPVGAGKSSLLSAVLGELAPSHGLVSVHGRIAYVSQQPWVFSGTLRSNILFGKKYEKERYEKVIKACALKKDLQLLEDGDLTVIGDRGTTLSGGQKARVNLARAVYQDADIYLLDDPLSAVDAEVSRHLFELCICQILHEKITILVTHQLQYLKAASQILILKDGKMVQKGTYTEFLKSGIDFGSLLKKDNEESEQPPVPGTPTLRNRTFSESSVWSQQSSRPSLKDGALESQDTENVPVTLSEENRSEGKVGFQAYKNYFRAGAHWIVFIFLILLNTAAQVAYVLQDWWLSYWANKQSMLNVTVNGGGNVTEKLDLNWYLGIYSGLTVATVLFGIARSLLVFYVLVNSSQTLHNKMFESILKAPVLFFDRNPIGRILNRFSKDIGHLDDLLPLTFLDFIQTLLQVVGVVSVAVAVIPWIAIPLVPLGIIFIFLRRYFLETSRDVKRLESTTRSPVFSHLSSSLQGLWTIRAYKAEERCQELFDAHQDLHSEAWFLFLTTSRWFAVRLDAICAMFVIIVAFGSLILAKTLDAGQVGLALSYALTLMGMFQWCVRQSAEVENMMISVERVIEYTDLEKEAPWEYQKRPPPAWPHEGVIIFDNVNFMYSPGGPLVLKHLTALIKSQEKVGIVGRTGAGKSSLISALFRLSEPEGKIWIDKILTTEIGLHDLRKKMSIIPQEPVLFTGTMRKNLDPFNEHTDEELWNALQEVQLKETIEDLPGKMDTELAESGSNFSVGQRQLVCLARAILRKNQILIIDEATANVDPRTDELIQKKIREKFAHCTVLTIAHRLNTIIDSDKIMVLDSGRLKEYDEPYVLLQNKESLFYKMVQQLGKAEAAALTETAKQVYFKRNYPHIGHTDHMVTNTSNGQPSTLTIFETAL
Nature of the series: Inhibition of human MRP4 overexpressed in Sf9 cell membrane vesicles assessed as uptake of [3H]-estradiol-17beta-D-glucuronide in presence of ATP and GSH measured after 20 mins by membrane vesicle transport assay. In kind it is ADME, cell-based.

Series [3] is described as follows: AUC in human at 50 to 100 mg, po QD after 24 hrs. To be noted: in vivo. In kind it is ADME, organism-based.
In series [4] the test system is Homo sapiens. In words: Ratio of drug concentration at steady state in patient with possible depletion of intravascular volume at 25 mg, po QD after 24 hrs to IC50 for human BSEP overexpressed in Sf9 insect cells. The class given is ADME, organism-based. As to conditions: in vivo.
Series [5] relates to Homo sapiens. In words: Ratio of drug concentration at steady state in patient with possible depletion of intravascular volume at 25 mg, po QD after 24 hrs to IC50 for human MRP4 overexpressed in Sf9 insect cells. The class given is ADME, organism-based. To be noted: in vivo.
Series [6] relates to Homo sapiens. Nature of the series: Ratio of drug concentration at steady state in human at 50 to 100 mg, po after 24 hrs to IC50 for human BSEP overexpressed in Sf9 insect cells. The class given is ADME, organism-based. As to conditions: in vivo.
Series [7] can be described thus: Drug concentration at steady state in human at 50 to 100 mg, po QD after 24 hrs. The class given is ADME, organism-based. As to conditions: in vivo, read-out: Css.
A short description of series [8]: Drug concentration at steady state in patient with possible depletion of intravascular volume at 25 mg, po QD after 24 hrs. The class given is ADME, organism-based. To be noted: human, in vivo, read-out: Css.
Series [9] is described as follows: AUC in patient with possible depletion of intravascular volume at 25 mg, po QD after 24 hrs. The class given is ADME, organism-based. To be noted: human, in vivo. On the set-up: time < 24 hr, dose 25 mg, route oral.
The target of series [10] is Bile salt export pump (Homo sapiens, UniProt O95342). In words: Inhibition of human BSEP overexpressed in Sf9 cell membrane vesicles assessed as uptake of [3H]-taurocholate in presence of ATP measured after 15 to 20 mins by membrane vesicle transport assay. The class given is ADME, cell-based.
Series [11] relates to Homo sapiens. In words: Ratio of drug concentration at steady state in human at 50 to 100 mg, po after 24 hrs to IC50 for human MRP4 overexpressed in Sf9 insect cells. The class given is ADME, organism-based. As to conditions: in vivo.
Series [12] can be described thus: AUC in human at 0.25 mg, sc QD after 24 hrs. In kind it is ADME, organism-based. On the set-up: dose 0.25 mg, time < 24 hr, route subcutaneous. As to conditions: in vivo.
Series [13] has as its system Homo sapiens. In words: Ratio of drug concentration at steady state in human at 0.25 mg, sc QD after 24 hrs to IC50 for human BSEP overexpressed in Sf9 insect cells. The class given is ADME, organism-based. As to conditions: in vivo.
Series [14] in a line: AUC in human at 3 mg, sc administered as single dose during early to mild follicular phase after 24 hrs. The class given is ADME, organism-based. On the set-up: dose 3 mg, time < 24 hr, route subcutaneous. To be noted: female, in vivo.
Series [15] in a line: Drug concentration at steady state in human at 0.25 mg, sc QD after 24 hrs. The class given is ADME, organism-based. To be noted: in vivo, read-out: Css.
Series [16] relates to Homo sapiens. Nature of the series: Drug concentration at steady state in human 3 mg, sc administered as single dose during early to mild follicular phase after 24 hrs. The class given is ADME, organism-based. As to conditions: in vivo.
In series [17] the test system is Homo sapiens. Nature of the series: Ratio of drug concentration at steady state in human at 3 mg, sc administered as single dose during early to mild follicular phase after 24 hrs to IC50 for human BSEP overexpressed in Sf9 insect cells. In kind it is ADME, organism-based. To be noted: in vivo.
The target of series [18] is ATP-binding cassette sub-family C member 2 (Homo sapiens, UniProt Q92887). Nature of the series: Inhibition of human MRP2 overexpressed in Sf9 cell membrane vesicles assessed as uptake of [3H]-estradiol-17beta-D-glucuronide in presence of ATP and GSH measured after 20 mins by membrane vesicle transport assay.
Series [19] is described as follows: AUC in human at 200 mg, po QD for 1 to 2 weeks after 24 hrs. The class given is ADME, organism-based. On the set-up: time < 24 hr, dose 200 mg, route oral. As to conditions: in vivo.
Series [20] is described as follows: Drug concentration at steady state in human at 200 mg, po QD for 1 to 2 weeks after 24 hrs. To be noted: in vivo, read-out: Css. The class given is ADME, organism-based.
Series [21] deals with Homo sapiens. Nature of the series: Ratio of drug concentration at steady state in human at 200 mg, po QD for 1 to 2 weeks after 24 hrs to IC50 for human BSEP overexpressed in Sf9 insect cells. In kind it is ADME, organism-based. As to conditions: in vivo.
Series [22] is described as follows: AUC in human at 1.25 to 25 mg, po QD after 24 hrs. In kind it is ADME, organism-based. As to conditions: in vivo.
The nature of series [23]: Drug concentration at steady state in human at 1.25 to 25 mg, po QD after 24 hrs. As to conditions: in vivo, read-out: Css. In kind it is ADME, organism-based.

Sequence of ATP-binding cassette sub-family C member 3 (O15438 whole entry): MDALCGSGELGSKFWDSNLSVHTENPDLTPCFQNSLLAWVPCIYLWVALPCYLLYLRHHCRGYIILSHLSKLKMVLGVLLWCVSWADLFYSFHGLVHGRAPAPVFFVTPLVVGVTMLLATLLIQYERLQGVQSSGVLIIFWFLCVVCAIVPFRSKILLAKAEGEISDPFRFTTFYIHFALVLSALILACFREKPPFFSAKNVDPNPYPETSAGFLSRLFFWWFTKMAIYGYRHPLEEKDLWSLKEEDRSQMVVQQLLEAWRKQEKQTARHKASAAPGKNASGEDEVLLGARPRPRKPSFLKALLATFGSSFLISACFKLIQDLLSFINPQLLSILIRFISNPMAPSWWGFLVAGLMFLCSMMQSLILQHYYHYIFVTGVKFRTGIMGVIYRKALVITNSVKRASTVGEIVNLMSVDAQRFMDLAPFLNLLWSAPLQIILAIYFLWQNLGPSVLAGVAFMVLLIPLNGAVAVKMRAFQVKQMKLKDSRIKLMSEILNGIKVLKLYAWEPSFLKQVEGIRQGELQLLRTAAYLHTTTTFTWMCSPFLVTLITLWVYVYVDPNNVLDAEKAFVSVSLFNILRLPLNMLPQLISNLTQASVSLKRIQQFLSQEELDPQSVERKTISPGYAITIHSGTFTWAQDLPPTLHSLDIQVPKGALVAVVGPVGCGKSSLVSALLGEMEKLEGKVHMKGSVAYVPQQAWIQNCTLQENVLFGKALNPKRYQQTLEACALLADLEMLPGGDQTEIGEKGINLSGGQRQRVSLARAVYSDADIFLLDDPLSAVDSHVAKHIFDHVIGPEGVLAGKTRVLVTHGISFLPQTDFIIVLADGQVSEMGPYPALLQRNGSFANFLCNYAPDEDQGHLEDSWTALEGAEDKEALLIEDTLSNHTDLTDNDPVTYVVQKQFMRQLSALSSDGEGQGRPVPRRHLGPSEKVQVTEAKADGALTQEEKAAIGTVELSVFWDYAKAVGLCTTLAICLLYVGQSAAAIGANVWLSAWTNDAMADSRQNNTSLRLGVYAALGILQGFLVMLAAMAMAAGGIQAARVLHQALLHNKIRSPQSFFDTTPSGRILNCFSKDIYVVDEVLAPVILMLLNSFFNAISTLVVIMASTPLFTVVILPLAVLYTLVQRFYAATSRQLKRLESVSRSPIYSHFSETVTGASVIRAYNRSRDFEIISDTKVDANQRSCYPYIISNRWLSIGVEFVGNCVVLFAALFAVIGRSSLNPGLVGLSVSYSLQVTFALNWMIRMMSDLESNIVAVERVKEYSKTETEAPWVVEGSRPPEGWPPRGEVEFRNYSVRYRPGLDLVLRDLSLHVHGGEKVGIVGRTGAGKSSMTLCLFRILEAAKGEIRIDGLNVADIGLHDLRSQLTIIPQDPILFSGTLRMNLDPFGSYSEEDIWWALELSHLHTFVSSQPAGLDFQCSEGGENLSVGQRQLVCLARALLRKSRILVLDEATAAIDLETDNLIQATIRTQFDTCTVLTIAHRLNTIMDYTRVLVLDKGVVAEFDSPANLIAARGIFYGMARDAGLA
Sequence of ATP-binding cassette sub-family C member 2 (Q92887 whole entry): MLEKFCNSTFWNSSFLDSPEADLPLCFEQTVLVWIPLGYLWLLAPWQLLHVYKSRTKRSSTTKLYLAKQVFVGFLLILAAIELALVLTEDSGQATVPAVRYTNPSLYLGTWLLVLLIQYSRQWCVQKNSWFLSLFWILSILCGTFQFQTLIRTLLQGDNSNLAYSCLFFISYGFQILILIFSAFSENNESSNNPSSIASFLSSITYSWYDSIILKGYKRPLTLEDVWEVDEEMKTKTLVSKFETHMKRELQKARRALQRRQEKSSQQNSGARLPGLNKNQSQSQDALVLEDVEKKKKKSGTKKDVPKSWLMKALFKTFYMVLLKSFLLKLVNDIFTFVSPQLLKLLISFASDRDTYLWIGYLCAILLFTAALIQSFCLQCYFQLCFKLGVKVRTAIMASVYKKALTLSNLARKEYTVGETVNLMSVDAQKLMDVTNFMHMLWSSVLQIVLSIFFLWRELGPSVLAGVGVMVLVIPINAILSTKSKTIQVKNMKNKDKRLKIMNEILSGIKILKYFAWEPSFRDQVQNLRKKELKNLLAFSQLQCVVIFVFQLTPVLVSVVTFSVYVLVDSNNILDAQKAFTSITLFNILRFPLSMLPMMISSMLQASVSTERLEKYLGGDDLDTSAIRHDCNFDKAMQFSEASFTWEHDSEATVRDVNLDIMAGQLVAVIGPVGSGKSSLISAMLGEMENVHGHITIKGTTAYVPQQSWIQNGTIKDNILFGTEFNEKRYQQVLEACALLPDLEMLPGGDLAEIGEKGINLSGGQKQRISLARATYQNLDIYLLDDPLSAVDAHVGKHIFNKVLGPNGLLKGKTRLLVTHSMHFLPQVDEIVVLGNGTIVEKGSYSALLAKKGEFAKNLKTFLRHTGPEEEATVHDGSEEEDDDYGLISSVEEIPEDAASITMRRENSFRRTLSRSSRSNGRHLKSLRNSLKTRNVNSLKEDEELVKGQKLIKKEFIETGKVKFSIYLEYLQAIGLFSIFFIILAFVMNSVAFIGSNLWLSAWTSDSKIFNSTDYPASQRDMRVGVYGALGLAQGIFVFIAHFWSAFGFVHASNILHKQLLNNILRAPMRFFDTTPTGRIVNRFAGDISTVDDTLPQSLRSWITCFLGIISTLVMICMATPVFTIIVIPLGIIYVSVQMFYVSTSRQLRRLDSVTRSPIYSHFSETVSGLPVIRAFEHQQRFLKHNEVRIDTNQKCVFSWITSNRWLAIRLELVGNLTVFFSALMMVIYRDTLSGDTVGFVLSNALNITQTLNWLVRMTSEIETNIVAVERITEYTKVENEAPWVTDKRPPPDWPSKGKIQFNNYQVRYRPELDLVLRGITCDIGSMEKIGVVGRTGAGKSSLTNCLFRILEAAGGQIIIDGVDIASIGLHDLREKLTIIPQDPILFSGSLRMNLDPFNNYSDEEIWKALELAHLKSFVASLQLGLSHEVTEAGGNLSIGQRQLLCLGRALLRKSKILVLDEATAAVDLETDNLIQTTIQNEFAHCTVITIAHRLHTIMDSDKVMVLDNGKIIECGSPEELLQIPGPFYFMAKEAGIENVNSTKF
Sequence of Bile salt export pump (O95342 whole entry): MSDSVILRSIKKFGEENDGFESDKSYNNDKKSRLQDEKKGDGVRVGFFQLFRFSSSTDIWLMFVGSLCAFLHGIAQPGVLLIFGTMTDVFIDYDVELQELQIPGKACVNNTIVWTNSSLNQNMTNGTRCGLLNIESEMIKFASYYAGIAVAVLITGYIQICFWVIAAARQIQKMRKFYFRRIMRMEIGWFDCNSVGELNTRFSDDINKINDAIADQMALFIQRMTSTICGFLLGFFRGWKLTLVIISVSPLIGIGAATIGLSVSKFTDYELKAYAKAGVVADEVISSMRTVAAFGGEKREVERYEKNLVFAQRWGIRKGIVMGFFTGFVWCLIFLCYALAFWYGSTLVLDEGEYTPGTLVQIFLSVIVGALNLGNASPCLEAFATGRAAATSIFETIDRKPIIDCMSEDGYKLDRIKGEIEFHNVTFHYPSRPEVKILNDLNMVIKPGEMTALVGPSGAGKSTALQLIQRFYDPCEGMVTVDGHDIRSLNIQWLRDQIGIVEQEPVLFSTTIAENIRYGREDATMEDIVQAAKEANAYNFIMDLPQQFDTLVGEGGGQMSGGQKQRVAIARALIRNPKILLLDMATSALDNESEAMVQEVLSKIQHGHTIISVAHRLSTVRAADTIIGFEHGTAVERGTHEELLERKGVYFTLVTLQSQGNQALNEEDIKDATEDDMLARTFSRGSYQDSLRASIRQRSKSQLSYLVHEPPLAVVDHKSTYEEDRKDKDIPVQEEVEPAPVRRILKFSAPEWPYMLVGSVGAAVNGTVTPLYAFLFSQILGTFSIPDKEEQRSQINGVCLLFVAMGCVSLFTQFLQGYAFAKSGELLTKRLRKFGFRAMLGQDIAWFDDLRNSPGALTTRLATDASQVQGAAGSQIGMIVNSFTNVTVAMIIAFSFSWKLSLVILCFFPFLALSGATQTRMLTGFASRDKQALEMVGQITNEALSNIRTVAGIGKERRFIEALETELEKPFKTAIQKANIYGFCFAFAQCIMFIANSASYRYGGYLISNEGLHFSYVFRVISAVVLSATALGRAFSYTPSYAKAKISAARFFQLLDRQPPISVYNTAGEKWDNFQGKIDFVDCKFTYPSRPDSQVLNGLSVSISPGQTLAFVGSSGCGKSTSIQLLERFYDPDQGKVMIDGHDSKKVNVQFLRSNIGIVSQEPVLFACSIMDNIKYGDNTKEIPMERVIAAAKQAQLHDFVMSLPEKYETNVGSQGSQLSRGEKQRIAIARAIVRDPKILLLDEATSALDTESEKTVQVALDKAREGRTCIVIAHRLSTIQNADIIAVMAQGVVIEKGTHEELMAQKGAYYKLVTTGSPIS

What is called pIC50 is −log10 of the IC50, conventionally taken in molar units. What is called AUC is the area under the concentration-time curve, a measure of exposure. In the case of `CCCCc1nc(Cl)c(CO)n1Cc1ccc(-c2ccccc2-c2nnn[n-]2)cc1.[K+]` [LOSARTAN POTASSIUM], the pIC50 in series [1] was < 3.88; in [2], 4.47; in [10], 5.07. In addition, the AUC at 24 h in [3] and in series [9] was 2.42 µM·h throughout. Besides, the Ratio is listed as 0.012 in series [4], 0.003 in series [5], 0.012 in series [6] and 0.003 in [11]. The concentration at 24 h in [7] and in series [8] was 101 nM in each case.
For `CC(=O)N[C@H](Cc1ccc2ccccc2c1)C(=O)N[C@H](Cc1ccc(Cl)cc1)C(=O)N[C@H](Cc1cccnc1)C(=O)N[C@@H](CO)C(=O)N[C@@H](Cc1ccc(O)cc1)C(=O)N[C@H](CCCNC(N)=O)C(=O)N[C@@H](CC(C)C)C(=O)N[C@@H](CCCNC(=N)N)C(=O)N1CCC[C@H]1C(=O)N[C@H](C)C(N)=O.CC(=O)O` [CETRORELIX ACETATE] (Ac-[d2Nal][dPhe(4-Cl)][d3Pal]SY[dCit]LRP[dA]-NH2), the pIC50 in series [1] is < 3.88; in series [2], < 3.88; in [10] it was 5.83; in series [18], < 3.88. Besides, the AUC at 24 h in series [12] and in series [14] was 0.375 µM·h throughout. Besides, the Ratio in series [13] and in series [17] was 0.011 each time. The concentration at 24 h in series [15] is 16 nM. In series [16], the Css amounted to 16 nM.
`CCC(C)n1ncn(-c2ccc(N3CCN(c4ccc(OCC5COC(Cn6cncn6)(c6ccc(Cl)cc6Cl)O5)cc4)CC3)cc2)c1=O` (stereo unspecified) [ITRACONAZOLE]: the pIC50 in [1], in series [2] and in series [18] was < 3.88 throughout. In addition, the AUC at 24 h in series [19] was determined as 8.69 µM·h. Besides, the concentration at 24 h in [20] came to 362 nM. Further, the Ratio in series [21] is 0.02.
Consider `COc1ccc(Cl)cc1C(=O)NCCc1ccc(S(=O)(=O)NC(=O)NC2CCCCC2)cc1` [GLYBURIDE], for which the pIC50 in [1] is 4.48; in series [2], 4.98. In addition, in [22], the AUC at 24 h stood at 2.69 µM·h. Further, in [23], the concentration at 24 h was 112 nM.
